Key:
Type in all cases: biochemical
[1] = target: T1, HDAC1 (Homo sapiens, UniProt Q13547); experiment: HDAC Inhibition Screening Assay (FLUOR DE LYS Fluorimetric Drug Discovery Kit), HDAC1; details: for inhibition at 2 µM: 2 μM compound; for inhibition at 10 µM: 10 μM compound; for inhibition at 50 µM: 50 μM compound
T1 construct: purchased Enzo Life Sciences
Description: (§1) The HDAC1/HDAC2/HDAC3 in vitro activities are detected by Enzo Life Sciences' HDAC1/HDAC2/HDAC3 Fluorimetric Drug Discovery Kit. The assay is based on the FLUOR DE LYS® Substrate and FLUOR DE LYS® Developer combination. The assay procedure has two steps. First, the FLUOR DE LYS® Substrate, which comprises an acetylated lysine side chain, is incubated with HDAC1/HDAC2/HDAC3, respectively. Deacetylation of the substrate sensitizes the substrate so that, in the second step, treatment with the FLUOR DE LYS® Developer produces a fluorophore. The signals of the test compounds (Compounds 1˜83; at concentrations of 2 μM, 10 μM and 50 μM) in 96-well plates are detected at 360 nm or 485 nm excitation and 460 nm or 530 nm emission with a Molecular Devices SpectraMax i3 Imaging Cytometer. The HDAC1/HDAC2/HDAC3 activities are expressed in percentage of basal control minus baseline control.

[2] = target: T2, HDAC2 (Homo sapiens, UniProt Q92769); experiment: HDAC Inhibition Screening Assay (FLUOR DE LYS Fluorimetric Drug Discovery Kit), HDAC2; details: for inhibition at 2 µM: 2 μM compound; for inhibition at 10 µM: 10 μM compound; for inhibition at 50 µM: 50 μM compound
T2 construct: purchased Enzo Life Sciences
Description: as §1

[3] = target: T3, HDAC3 (Homo sapiens, UniProt O15379); experiment: HDAC Inhibition Screening Assay (FLUOR DE LYS Fluorimetric Drug Discovery Kit), HDAC3; details: for inhibition at 2 µM: 2 μM compound; for inhibition at 10 µM: 10 μM compound; for inhibition at 50 µM: 50 μM compound
T3 construct: purchased Enzo Life Sciences
Description: as §1

[4] = target: T4, ATX (autotaxin) (Homo sapiens, UniProt Q13822); experiment: Autotaxin Inhibition Screening Assay (choline release from LPC, LPC-CR); details: for inhibition at 4 µM: 4 μM compound; for inhibition at 20 µM: 20 μM compound; for inhibition at 50 µM: 50 μM compound
T4 construct: purchased Cayman 10803
Description: ATX (autotaxin) activity was measured by choline release from LPC in presence or absence of test compounds (Compounds 1˜83; at concentrations of 4 μM, 20 μM and 50 μM). Twenty (20) ng ATX (10803, Cayman, MI, USA) was incubated with 100 μM 14:0 LPC (855575P, Avanti, AL, USA) in a final volume of 100 μL buffer containing 50 mM Tris pH 8.0, 0.01% Triton X-100, 50 mM CaCl2, 1 unit/ml choline oxidase, 2 unit/ml horseradish peroxidase (HRP), 2 mM homovanilic acid (HVA). The relative amount of released choline was measured by HVA fluorescence in a 96-well plate. Fluorescent intensity was determined at λex/λem=320/450 nm every 60 sec for 90 min with a SpectraMax i3 (Molecular Devices, CA, USA). Data analysis was performed using GraphPad Prism (GraphPad, La Jolla CA, USA). Inhibition %=[1−(SlopeTA−SlopeBlank)/(SlopeVehicle−SlopeBlank)]×100% HDAC Inhibition Screening Assay

T3 sequence (O15379 whole entry): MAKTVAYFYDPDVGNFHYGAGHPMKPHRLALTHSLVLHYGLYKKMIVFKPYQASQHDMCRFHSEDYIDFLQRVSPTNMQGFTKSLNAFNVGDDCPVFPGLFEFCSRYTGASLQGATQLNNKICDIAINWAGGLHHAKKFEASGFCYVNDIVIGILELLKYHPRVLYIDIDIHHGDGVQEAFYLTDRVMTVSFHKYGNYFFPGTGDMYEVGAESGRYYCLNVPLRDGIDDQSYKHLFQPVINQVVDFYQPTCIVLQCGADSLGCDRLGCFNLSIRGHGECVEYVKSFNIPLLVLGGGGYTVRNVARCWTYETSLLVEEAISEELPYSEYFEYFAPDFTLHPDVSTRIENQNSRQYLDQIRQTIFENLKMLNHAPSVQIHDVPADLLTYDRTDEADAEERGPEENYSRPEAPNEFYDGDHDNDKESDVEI
T3 sequence (O75376 395-489 partner limits assumed): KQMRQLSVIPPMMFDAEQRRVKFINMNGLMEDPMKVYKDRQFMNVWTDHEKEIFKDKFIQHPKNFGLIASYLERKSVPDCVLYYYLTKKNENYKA
T1 sequence (Q13547 whole entry): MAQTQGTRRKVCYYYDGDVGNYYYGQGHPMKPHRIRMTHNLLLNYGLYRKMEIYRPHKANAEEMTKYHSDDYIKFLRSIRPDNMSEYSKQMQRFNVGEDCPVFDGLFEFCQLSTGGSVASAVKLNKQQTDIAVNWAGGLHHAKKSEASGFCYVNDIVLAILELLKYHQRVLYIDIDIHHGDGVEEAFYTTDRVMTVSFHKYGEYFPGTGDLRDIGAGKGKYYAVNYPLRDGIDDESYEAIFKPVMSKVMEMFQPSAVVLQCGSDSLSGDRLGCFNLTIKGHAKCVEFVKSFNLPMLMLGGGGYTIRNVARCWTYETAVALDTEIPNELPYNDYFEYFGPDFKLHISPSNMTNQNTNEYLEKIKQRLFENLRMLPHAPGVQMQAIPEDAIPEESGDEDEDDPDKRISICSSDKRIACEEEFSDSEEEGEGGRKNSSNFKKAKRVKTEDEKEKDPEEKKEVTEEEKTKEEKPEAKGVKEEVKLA
T2 sequence (Q92769 whole entry): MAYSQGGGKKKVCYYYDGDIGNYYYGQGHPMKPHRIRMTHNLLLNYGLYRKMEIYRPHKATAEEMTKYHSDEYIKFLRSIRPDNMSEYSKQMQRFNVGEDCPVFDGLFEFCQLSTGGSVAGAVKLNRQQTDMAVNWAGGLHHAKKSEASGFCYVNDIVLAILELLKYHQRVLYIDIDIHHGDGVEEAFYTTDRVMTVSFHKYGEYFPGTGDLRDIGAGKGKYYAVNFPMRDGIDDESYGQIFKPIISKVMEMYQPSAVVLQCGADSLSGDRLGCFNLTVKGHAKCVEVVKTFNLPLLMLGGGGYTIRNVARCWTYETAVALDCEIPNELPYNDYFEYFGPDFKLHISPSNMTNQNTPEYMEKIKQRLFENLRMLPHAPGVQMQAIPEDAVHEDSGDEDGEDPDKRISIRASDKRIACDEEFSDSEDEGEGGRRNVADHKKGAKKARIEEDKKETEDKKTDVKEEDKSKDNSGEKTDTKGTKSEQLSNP

| SMILES | inhibition at 2 µM [1] | inhibition at 10 µM [1] | inhibition at 50 µM [1] | inhibition at 2 µM [2] | inhibition at 10 µM [2] | inhibition at 50 µM [2] | inhibition at 2 µM [3] | inhibition at 10 µM [3] | inhibition at 50 µM [3] | inhibition at 4 µM [4] | inhibition at 20 µM [4] | inhibition at 50 µM [4] |
| --- | --- | --- | --- | --- | --- | --- | --- | --- | --- | --- | --- | --- |
| CN(C)c1ccc(C(=O)NC2CCc3cc(/C=C/C(=O)NO)ccc32)cc1 (stereo not drawn) [Compound 26, (E)-4-(dimethylamino)-N-(5-(3-(hydroxyamino)-3-oxoprop-1-en-1-yl)-2,3-dihydro-1H-inden-1-yl)benzamide] | > 80% | > 80% | > 80% | > 80% | > 80% | > 80% | > 80% | > 80% | > 80% | < 50% | < 50% | < 50% |
| CCN(CC)c1ccc(C(=O)NC2CCc3cc(/C=C/C(=O)Nc4ccc(F)cc4N)ccc32)cc1 (stereo not drawn) [Compound 27] | < 50% | < 50% | < 50% | < 50% | < 50% | < 50% | < 50% | < 50% | < 50% | < 50% | < 50% | < 50% |
| CCN(CC)c1ccc(C(=O)NC2CCc3cc(/C=C/C(=O)NO)ccc32)cc1 (stereo not drawn) [Compound 28, (E)-4-(diethylamino)-N-(5-(3-(hydroxyamino)-3-oxoprop-1-en-1-yl)-2,3-dihydro-1H-inden-1-yl)benzamide] | > 80% | > 80% | > 80% | > 80% | > 80% | > 80% | > 80% | > 80% | > 80% | < 50% | < 50% | < 50% |
| CCN(CC)c1ccc(C(=O)NC2CCc3cc(/C=C/C(=O)NCCCCCC(=O)Nc4ccc(F)cc4N)ccc32)cc1 (stereo not drawn) [Compound 29, (E)-N-(5-(3-((6-((2-amino-4-fluorophenyl)amino)-6-oxohexyl)amino)-3-oxoprop-1-en-1-yl)-2,3-dihydro-1H-inden-1-yl)-4-(diethylamino)benzamide] | < 50% | < 50% | < 50% | < 50% | < 50% | 50 to 80% | < 50% | < 50% | < 50% | < 50% | < 50% | < 50% |
| CCN(CC)c1ccc(C(=O)NC2CCc3cc(/C=C/C(=O)NCCCCCC(=O)NO)ccc32)cc1 (stereo not drawn) [Compound 30, (E)-4-(diethylamino)-N-(5-(3-((6-(hydroxyamino)-6-oxohexyl)amino)-3-oxoprop-1-en-1-yl)-2,3-dihydro-1H-inden-1-yl)benzamide] | > 80% | > 80% | > 80% | > 80% | > 80% | > 80% | > 80% | > 80% | > 80% | < 50% | < 50% | 50 to 80% |
| Nc1cc(F)ccc1NC(=O)CCCCCNC(=O)/C=C/c1ccc2c(c1)CCC2NC(=O)c1ccc(F)cc1 (stereo not drawn) [Compound 31, (E)-N-(5-(3-((6-((2-amino-4-fluorophenyl)amino)-6-oxohexyl)amino)-3-oxoprop-1-en-1-yl)-2,3-dihydro-1H-inden-1-yl)-4-fluorobenzamide] | < 50% | 50 to 80% | 50 to 80% | > 80% | > 80% | > 80% | 50 to 80% | > 80% | > 80% | < 50% | < 50% | < 50% |
| O=C(/C=C/c1ccc2c(c1)CCC2NC(=O)c1ccc(F)cc1)NCCCCCC(=O)NO (stereo not drawn) [Compound 32, (E)-4-fluoro-N-(5-(3-((6-(hydroxyamino)-6-oxohexyl)amino)-3-oxoprop-1-en-1-yl)-2,3-dihydro-1H-inden-1-yl)benzamide] | > 80% | > 80% | > 80% | > 80% | > 80% | > 80% | 50 to 80% | > 80% | > 80% | < 50% | < 50% | < 50% |
| O=C(/C=C/c1ccc2c(c1)CCC2NCc1cc(C(F)(F)F)cc(C(F)(F)F)c1)NO (stereo not drawn) [Compound 33, (E)-3-(1-((3,5-bis(trifluoromethyl)benzyl)amino)-2,3-dihydro-1H-inden-5-yl)-N-hydroxyacrylamide] | 50 to 80% | > 80% | > 80% | 50 to 80% | > 80% | > 80% | 50 to 80% | > 80% | > 80% | < 50% | < 50% | < 50% |
| O=C(/C=C/c1ccc2c(c1)CCC2OCc1cc(C(F)(F)F)cc(C(F)(F)F)c1)NO (stereo not drawn) [Compound 34, (E)-3-(1-((3,5-bis(trifluoromethyl)benzyl)oxy)-2,3-dihydro-1H-inden-5-yl)-N-hydroxyacrylamide] | < 50% | > 80% | > 80% | 50 to 80% | > 80% | > 80% | < 50% | 50 to 80% | > 80% | < 50% | < 50% | < 50% |
| Nc1cc(F)ccc1NC(=O)/C=C/c1ccc2c(c1)CCCC2OCc1cc(C(F)(F)F)cc(C(F)(F)F)c1 (stereo not drawn) [Compound 35, (E)-N-(2-amino-4-fluorophenyl)-3-(5-((3,5-bis(trifluoromethyl)benzyl)oxy)-5,6,7,8-tetrahydronaphthalen-2-yl)acrylamide] | < 50% | < 50% | < 50% | < 50% | < 50% | < 50% | < 50% | < 50% | 50 to 80% | < 50% | < 50% | < 50% |
| O=C(/C=C/c1ccc2c(c1)CCCC2OCc1cc(C(F)(F)F)cc(C(F)(F)F)c1)NO (stereo not drawn) [Compound 36, (E)-3-(5-((3,5-bis(trifluoromethyl)benzyl)oxy)-5,6,7,8-tetrahydronaphthalen-2-yl)-N-hydroxy acrylamide] | < 50% | > 80% | > 80% | 50 to 80% | > 80% | > 80% | < 50% | 50 to 80% | > 80% | < 50% | < 50% | < 50% |
| O=C(/C=C/c1ccc2c(c1)CCC2N1CC(=O)N(c2cc(Cl)cc(Cl)c2)C1=O)NO (stereo not drawn) [Compound 37, (E)-3-(1-(3-(3,5-dichlorophenyl)-2,4-dioxoimidazolidin-1-yl)-2,3-dihydro-1H-inden-5-yl)-N-hydroxyacrylamide] | > 80% | > 80% | > 80% | > 80% | > 80% | > 80% | > 80% | > 80% | > 80% | < 50% | < 50% | < 50% |
| COc1ccc(N2C(=O)CN(C3CCc4cc(/C=C/C(=O)NO)ccc43)C2=O)cc1 (stereo not drawn) [Compound 38, (E)-N-hydroxy-3-(1-(3-(4-methoxyphenyl)-2,4-dioxoimidazolidin-1-yl)-2,3-dihydro-1H-inden-5-yl)acrylamide] | > 80% | > 80% | > 80% | > 80% | > 80% | > 80% | > 80% | > 80% | > 80% | < 50% | < 50% | < 50% |

Source: US12162820B2 (TAIWANJ PHARMACEUTICALS CO., LTD., priority 2019, dated 2024)
